Measured values reported in US20260124167A1, “SIRTUIN ACTIVATOR OR EXPRESSION ENHANCER, NAD+ INCREASING AGENT, AND SENESCENT CELL INHIBITOR” (WAKUNAGA PHARMACEUTICAL CO., LTD., priority 2022, published 2026).

Experiments:
SIRT1 protein [1] = assay: SIRT1 protein increasing action in hypothalamus (in vivo); conditions: SAMP8 mice fed diet mixed with sample (0.001% liquid) for 10 months; FIG. 12
Protocol: S-1-propenylcysteine (cis/trans mixture) produced in Preparation Example 2 was dissolved at a concentration of 0.001% in purified water to prepare an administration liquid. Animals for evaluating the biological activity were bred as follows. Senescence-accelerated mice SAMR1 (male) and SAMP8 (male) for testing were purchased from Japan SLC, Inc. After purchase, the animals were acclimatized for one week and used as animals for the evaluation tests. These animals for the evaluation tests were fed with regular diet and SAMP8 were fed with the diet mixed with the sample prepared above for 10 months, and then hypothalamuses of such animals were excised. After the hypothalamuses were crushed using an automatic tissue crusher, the cells were lysed with a RIPA cell lysis buffer manufactured by Millipore Corporation which was diluted 10-fold with purified water added with combined protease/phosphatase inhibitors manufactured by Thermo Fisher Scientific K.K., and then centrifuged (10,000 rpm, 10 min, 4° C.), and the supernatant was used as a cell extract. The cell extract was used for analysis by Western Blotting according to a conventional method. An anti-SIRT1 antibody (manufactured by Biolegend) and an anti-β-actin antibody (manufactured by Fujifilm Wako Pure Chemical Corporation) were used as antibodies. S-1-propenylcysteine increased the SIRT1 protein mass.

KIM-1 = assay: Inhibitory action on kidney injuries (in vivo), KIM-1 Western Blotting; conditions: SAMP8 mice, repeated oral administration for two weeks, FIG. 8
Protocol: (§1) (a) About 5 mg of S-1-propenylcysteine (cis/trans mixture) produced in Preparation Example 2 was weighed precisely, and dissolved in 10 mL of purified water to prepare an administration liquid. (b) About 6 mg of S-1-propenylcysteine (cis/trans mixture) produced in Preparation Example 2 was weighed precisely and dissolved in 1 mL of culture liquid. The liquid was used as a stock solution, diluted appropriately, and subjected to an in vitro test.
(§2) Animals for evaluating the biological activity were bred as follows. Senescence-accelerated mice SAMP8 (male) for testing were purchased from Japan SLC, Inc. After purchase, the animals were acclimatized for one week and used as animals for the evaluation tests.
(§3) After repeated oral administration of the sample prepared in the above (1) (a) to the animals for the evaluation tests in the above (2) for two weeks, kidneys of such animals were excised. After the kidneys were crushed using an automatic tissue crusher, the cells were lysed with an RIPA cell lysis buffer manufactured by Millipore Corporation which was diluted 10-fold with purified water added with a protease inhibitor and a phosphatase inhibitor manufactured by Roche and then centrifuged (10,000 rpm, 10 min, 4° C.), and the supernatant was used as a cell extract. The cell extract was used for analysis by Western Blotting according to a conventional method. […]

SIRT1 protein [2] = assay: SIRT1 protein amount-increasing effect in liver and heart (in vivo); parameters: species or system mice; conditions: animals prepared as in (12) (SAMR1, SAMP8), repeated oral administration for two weeks; FIG. 13
SIRT1 = molecular target: T1, SIRT1 (Mus musculus, UniProt Q923E4); assay: SIRT1 activation action (in vivo), cerebral cortex lysate, SIRT1_GLO kit; conditions: SAMP8 mice, single oral dose, 180 minutes after administration; FIG. 2
T1 construct: from tissue; host or cells: cerebral cortex of SAMP8 mice
T1 sequence (Q923E4 1-737): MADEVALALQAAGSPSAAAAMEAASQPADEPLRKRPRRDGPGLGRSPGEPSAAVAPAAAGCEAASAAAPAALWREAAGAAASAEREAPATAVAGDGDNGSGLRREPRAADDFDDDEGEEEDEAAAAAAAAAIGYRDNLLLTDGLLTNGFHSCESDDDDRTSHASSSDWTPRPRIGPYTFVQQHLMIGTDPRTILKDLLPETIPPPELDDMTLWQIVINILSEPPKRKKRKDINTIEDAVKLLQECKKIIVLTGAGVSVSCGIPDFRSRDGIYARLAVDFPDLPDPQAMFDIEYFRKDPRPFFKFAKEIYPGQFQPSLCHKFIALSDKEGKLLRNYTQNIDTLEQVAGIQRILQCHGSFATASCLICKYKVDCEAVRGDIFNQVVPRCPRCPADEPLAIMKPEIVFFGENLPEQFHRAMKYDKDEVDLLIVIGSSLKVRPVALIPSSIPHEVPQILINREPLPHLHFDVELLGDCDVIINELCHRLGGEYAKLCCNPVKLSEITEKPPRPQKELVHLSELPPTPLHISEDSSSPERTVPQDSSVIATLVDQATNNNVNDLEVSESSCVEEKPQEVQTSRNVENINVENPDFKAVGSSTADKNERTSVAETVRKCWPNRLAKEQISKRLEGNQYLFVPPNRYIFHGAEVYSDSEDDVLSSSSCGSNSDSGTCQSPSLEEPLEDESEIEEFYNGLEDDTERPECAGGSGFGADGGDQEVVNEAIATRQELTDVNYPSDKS
Protocol: as §1, §2
A SIRT1_GLO kit manufactured by Promega Corporation was purchased to measure the sirtuins activity. A lysate of the cerebral cortex was placed in a 96-well plate, various reaction reagents were added, and then luminous intensity of luciferase was measured by a plate reader.
A single dose of the sample prepared in the above (1) (a) was orally administrated to animals for the evaluation tests in the above (2), and then cerebral cortices of such animals were extracted 15, 30, 60, and 180 minutes later. […] Centrifugation was performed and the sirtuins activity in the supernatant thereof was measured. […]

SIRT1 gene = assay: Enhancement of SIRT1 gene expression in kidney (in vivo), real-time PCR; conditions: SAMP8 mice, repeated oral administration for two weeks, FIG. 6
Protocol: as §1, §2
After repeated oral administration of the sample prepared in the above (1) (a) to the animals for the evaluation tests in the above (2) for two weeks, kidneys of such animals were excised. The kidneys were crushed using an automatic tissue crusher, and then RNA was extracted using a TRIzol solution manufactured by Thermo Fisher Scientific K.K. CDNA was synthesized using PRIMEScript RT reagent Kit with gEraser manufactured by Takara. The synthesized CDNA was subjected to real-time PCR using KAPA SYBR Fast qPCR kit manufactured by Nippon Genetics Co., Ltd. The results are shown in FIG. 6. S-1-propenylcysteine increased the SIRT1 expression in the mouse kidney.

p53 protein = assay: Suppression of cellular senescence marker p53 protein in the hippocampus (in vivo); conditions: SAMP8 mice, repeated oral administration for six weeks; FIG. 5
Protocol: as §1, §2
as §3, with “to” for “to the”, “for six” for “for two”, “weeks, hippocampi” for “weeks, kidneys”, “the hippocampi” for “the kidneys”, “with a” for “with an”, “by Roche,” for “by Roche”

SIRT1 protein [3] = assay: SIRT1 protein increasing action in cerebral cortex, hippocampus, heart, lung, liver, kidney, and skeletal muscle (in vivo); conditions: SAMP8 mice, about 10 mg in 10 mL liquid, repeated oral administration for two weeks; FIG. 11
Protocol: as §2
About 10 mg of S-1-propenylcysteine (cis/trans mixture) produced in Preparation Example 2 was weighed precisely, and dissolved in 10 mL of purified water to prepare an administration liquid. After repeated oral administration of the prepared sample to animals for the evaluation tests in the above (2) for two weeks, cerebral cortexes, hippocampi, hearts, lungs, livers, kidneys, and skeletal muscles of such animals were excised. After the cerebral cortexes, hippocampi, hearts, lungs, livers, kidneys, and skeletal muscles were crushed using an automatic tissue crusher, the cells were lysed with a RIPA cell lysis buffer manufactured by Millipore Corporation which was diluted 10-fold with purified water added with combined protease/phosphatase inhibitors manufactured by Thermo Fisher Scientific K.K., and then centrifuged (10,000 rpm, 10 min, 4° C.), and the supernatant was used as a cell extract. The cell extract was used for analysis by Western Blotting according to a conventional method. […]

lipocalin-2 (NGAL) = assay: Inhibitory action on kidney injuries (in vivo), NGAL Western Blotting; conditions: SAMP8 mice, repeated oral administration for two weeks, FIG. 8
Protocol: as §1, §2, §3

SIRT1 protein [4] = assay: SIRT1 protein increasing action (in vivo), hippocampus, Western Blotting; conditions: SAMP8 mice, repeated oral administration for two weeks; FIG. 3
Protocol: as §1, §2
as §3, with “to” for “to the”, “weeks, hippocampi” for “weeks, kidneys”, “the hippocampi” for “the kidneys”, “with a” for “with an”, “with combined protease/phosphatase inhibitors” for “with a protease inhibitor and a phosphatase inhibitor”, “by Thermo Fisher Scientific K.K.,” for “by Roche”

[5] = system: Senescence-accelerated mice SAMP8; assay: Cognitive/memory retention action (in vivo), passive avoidance test; conditions: mixed with food for four months, holding trial after two months, FIG. 9
Protocol: as §1, §2
The sample prepared in the above (1) (a) was mixed with food and fed to animals for evaluation test in the above (2) for four months, and then a passive avoidance test was performed. The passive avoidance test is a test utilizing a habit that a mouse prefers a dark place, and on Day 1, a mouse already in a bright room was moved to a dark room while receiving an electrical shock (50 V/1 second), and the time it took for the mouse to enter the dark room was taken as response latency of an acquisition trial. After two months, the mouse was put in the bright room again and the time it took to move to the dark room (the response latency of a holding trial) was used as an index of memory.

NAD^+ [6] = assay: NAD+ amount increasing action (in vivo), NAD+/NADH Assay Kit; conditions: SAMP8 mice, single oral dose (180 minutes later) and mixed with food for one month; FIG. 4
Protocol: as §1, §2
A single dose of the sample prepared in (1) (a) was orally administered to animals for the evaluation tests in the above (2), and then cerebral cortices of such animals were excised 180 minutes later. In addition, the sample prepared in the above (1) (a) was mixed with food and fed to animals for the evaluation tests in the above (2) for one month, and then cerebral cortices of such animals were excised. The NAD^+ amount in the cerebral cortices was measured using NAD^+/NADH Assay Kit manufactured by Dojindo Laboratories. S-1-propenylcysteine increased NAD^+ amount.

p16 gene = assay: Suppression of senescent cell marker p16 gene expression in the kidney (in vivo); conditions: SAMP8 mice, repeated oral administration for two weeks, real-time PCR; FIG. 7
Protocol: as §1, §2
(§4) After repeated oral administration of the sample prepared in the above (1) (a) to the animals for the evaluation tests in the above (2) for two weeks, kidneys of such animals were excised. The kidneys were crushed using an automatic tissue crusher, and then RNA was extracted using a TRIzol solution manufactured by Thermo Fisher Scientific K.K. CDNA was synthesized using PRIMEScript RT reagent Kit with gEraser manufactured by Takara. The synthesized cDNA was subjected to real-time PCR using KAPA SYBR Fast qPCR kit manufactured by Nippon Genetics Co., Ltd. The results are shown in FIG. 7. […]

p21 gene = assay: Suppression of senescent cell marker p21 gene expression in the kidney (in vivo); conditions: SAMP8 mice, repeated oral administration for two weeks, real-time PCR; FIG. 7
Protocol: as §1, §2, §4

NAD^+ [7] = assay: NAD+ amount increasing action in kidney, skeletal muscle, and liver (in vivo); conditions: SAMP8 mice, single oral dose, 60 minutes later; FIG. 10
Protocol: as §1, §2
A single dose of the sample prepared in the above (1) (a) was orally administrated to animals for the evaluation tests in the above (2), and then cerebral cortexes, livers, kidneys, and skeletal muscles of such animals were extracted 60 minutes later. The NAD^+ amounts in the cerebral cortexes, livers, kidneys, and skeletal muscles were measured using NAD^+/NADH Assay Kit manufactured by Dojindo Laboratories. S-1-propenylcysteine increased the NAD^+ amount.

CC=CSC[C@H](N)C(=O)O [S-1-propenylcysteine]
SIRT1 protein mass in hypothalamus (SIRT1 protein [1]): increased
KIM-1 (marker of kidney injuries) in kidney (KIM-1): reduced
SIRT1 protein mass in livers and hearts (SIRT1 protein [2]): increased
sirtuin activity in cerebral cortex (SIRT1): increased
SIRT1 expression in kidney (SIRT1 gene): increased
p53 protein mass in hippocampus (p53 protein): reduced
SIRT1 protein mass in cerebral cortexes, hippocampi, hearts, lungs, livers, kidneys, and skeletal muscles (SIRT1 protein [3]): increased
NGAL (marker of kidney injuries) in kidney (lipocalin-2 (NGAL)): reduced
SIRT1 protein mass in hippocampus (SIRT1 protein [4]): increased
cognitive and memory functions (response latency, passive avoidance test) [5]: ameliorated aging-related decline in cognitive and memory functions
NAD^+ amount in cerebral cortices (NAD^+ [6]): increased
cells expressing p16 gene in the kidneys (p16 gene): reduced
cells expressing p21 gene in the kidneys (p21 gene): reduced
NAD^+ amount in cerebral cortexes, livers, kidneys, and skeletal muscles (NAD^+ [7]): increased
